According to patent US20200345746A1, “Oxazine Derivative for Use in the Prevention of Alzheimer's Disease in at Risk Patents” (Novartis AG, priority 2016, published 2020):

Columns and labels:
Aβ40 [1] = test: Acute PK/PD in APOE4-TR mice: Aβ40 in CSF; assay type: in vivo, mouse; conditions: for Average Aβ40 CSF ± SD: n = 6
Experimental: Compound 1 was formulated as a suspension. Vehicle or compound was given by oral administration in a volume of 10 ml/kg once. Vehicle: 0.1% Tween80 in 0.5% Methylcellulose in water.
Analysis of Aβ40 in Mouse Brain and Aβ40 and Aβ42 in CSF

[2] = First-in-human study: safety and tolerability; assay type: in vivo; conditions: healthy elderly subjects
Text: The purpose of this study was to determine the single and multiple maximum tolerated dose of Compound 1 and to assess the pharmacokinetic/pharmacodynamic (PK/PD) relationship using Aβ in CSF as primary PD biomarker.

IBA1 positive microglia = IBA1 positive microglia in APP23 mice; assay type: in vivo, mouse; conditions: for Distal IBA1+ area / Non-plaque-associated IBA1+ area* / Plaque-associated IBA1+ area / Proximal IBA1+ area / Total IBA1+ area: normalized by total area, mean + SEM
Experimental: Amyloid plaques were stained using the same antibody and the microglia cells were detected using a rabbit anti-IBA1 antibody (reference 019-19741) from Wako Chemicals GmbH (Neuss, Germany) and diluted at 1/200 in antibody diluent. The staining protocol was exactly similar to the protocol for amyloid-beta plaques and astrocytes. The slides were scanned with the same settings.
For the beta-amyloid plaque and neuroinflammation analysis, the following sequence of steps was performed: • Slides were scanned with Hamamatsu Nanozoomer at 40× magnification. For each fluorescence labelling (DAPI, FITC and TRITC), a separate image was created • Manually outline ROIs (regions of interest) for defining cortex in brain sections for Aβ plaque assessment on the green FITC channel image, then use the resulting outline also for the other two channel images (copy resulting xml files) • Run the in-house developed ImageScope (V12.1.0.5029, Aperio Inc., USA) plug-in for creation and export of *.tif image tiles (at 10× magnification) for each of the 3 fluorescence channels
Image Batch Processing: • Obtain the combined true color image (DAPI, FITC, TRITC) for each section through accessing each individual fluorescence channel image • Segmentation of valid sample (within outlined ROI) from black unstained background • Apply adaptive thresholding technique for segmentation of objects in green channel image
(FITC-labeled Aβ plaques) • Separation of touching objects for correct subsequent individual object analysis after elimination of too small debris showing signal in the green (FITC) channel • Segmentation of TRITC-labeled objects in red channel (specific for GFAP or Iba1 staining indicating astrocytes or microglia) through morphological tophat transformation and thresholding • Feature based object classification
Computation of several morphometric and densitometric features for valid plaques • Number of plaques • “Specific optical density” which has been described to reflect the amount of protein (antigen) concentration, based on measuring and using the staining intensity of an appropriate antibody in a non-linear way (Rahier et al., 1989; Ruifrok et al., 2001) • assessment of “plaque-associated GFAP or Iba1” based on the ratio of TRITC+ signal vs plaque area, “proximal GFAP or Iba1” based on ratio of TRITC+ signal within dilation ring around plaque

Aβ40 [3] = test: Triton TX-100 soluble Aβ40 in APP23 mouse brain; assay type: in vivo; conditions: APP23 mice
Experimental: Frozen mouse forebrains were weighed and homogenized in 9 volumes (w/v) of ice-cold TBS-Complete (20 mM Tris-HCl pH 7.4, 137 mM NaCl, 1× Complete [Protease Inhibitor Cocktail Tablets: 1 836 145, Roche Diagnostics GmbH, Penzberg, Germany]) by sonication (90% duty cycle, output control 5, 40-55 pulses, [Sonifier 450, Branson]). After homogenization several 50 μl aliquots were prepared for analysis and were stored at −80° C.
Human Aβ40 and 42 in mice was determined with the Meso Scale Discovery (MSD) 96-well MULTI-ARRAY human/rodent (6E10) Aβ40/42 Assay (Meso Scale Discovery, Rockville, Md., USA). The assay was performed according to the manufacturer's instructions except for the calibration curve and the sample preparations. TritonX-100 (TX-100) soluble Aβ40 and 42 was extracted from forebrain with 1% TX-100 using a 50 μl aliquot of each 1:10 forebrain homogenate, mixed with 50 μl 2% TX-100 in TBS complete (20 mM Tris-HCl pH 7.4, 137 mM NaCl, 1× Complete [Protease Inhibitor Cocktail Tablets: 1 836 145, Roche Diagnostics GmbH, Penzberg Germany]) to reach a final concentration of 1% TX-100 and a 1:20 forebrain dilution. The samples were incubated for 15 min on ice and vortexed every 5 min. The samples were ultra-centrifuged (100000×g, 4° C., 15 min) and 50 μl of the clear supernatants were transferred to fresh tubes. The supernatants were further diluted 1:5 in 3% Blocker A solution (from kit) to a final forebrain dilution of 1:100 and applied to the plate.
The calibration curve was prepared in a corresponding dilution of 1% Blocker A solution spiked with synthetic Aβ1-40 peptide (1.56-100 pg/ml) except for non-transgenic mouse brain samples: In this case, the calibration curve was prepared in a correspondingly diluted APP knockout mouse forebrain spiked with synthetic Aβ1-40 peptide (1.56-100 pg/ml). For all samples and standards 25 μl were applied per well. For each determination duplicate wells were done. The mean values from the duplicate wells were used for calculations. The relative units for samples and standards were imported into SOFTmax PRO 4.0 for calculation of standard curves and quantification of samples.
Brain homogenates were extracted with 1% Triton X-100 in buffer and the resulting supernatant was considered to represent soluble forms of APP metabolites. In addition to Aβ40 and 42, we determined the N-terminal APP fragments sAPPα (direct cleavage product of α-secretase) and sAPPβ (Swe) (direct product of BACE1 cleavage). […] Since no change in the APP expression and Aβ generation is known to happen during this age, it is assumed that the increased values in the vehicle group (18-20 mo old) arise from “leakage” out of the Aβ deposits (which increase several fold, see below).

For `C[C@@]1(c2nc(NC(=O)c3ncc(C(F)(F)F)cc3Cl)ccc2F)CO[C@@](C)(C(F)(F)F)C(N)=N1` [Compound 1, N-(6-((3R,6R)-5-amino-3,6-dimethyl-6-(trifluoromethyl)-3,6-dihydro-2H-1,4-oxazin-3-yl)-5-fluoropyridin-2-yl)-3-chloro-5-(trifluoromethyl)picolinamide], the “Mini AUEC (CSF Aβ40)” value (Aβ40 [1]; 3 μmol/kg acute) was 26%, the “Average Aβ40 CSF ± SD” value (Aβ40 [1]; 3 μmol/kg acute p.o., 4 h) was 0.1308 ± 0.06381 pmol/mL and the “Average Aβ40 CSF ± SD” value (Aβ40 [1]; 3 μmol/kg acute p.o., 24 h) was 0.1402 ± 0.07911 pmol/mL. The “% reduction vs vehicle (CSF Aβ40)” value (Aβ40 [1]; 3 μmol/kg acute, 4 h) was 28%, the “% reduction vs vehicle (CSF Aβ40)” value (Aβ40 [1]; 3 μmol/kg acute, 24 h) was 23% and the “Mini AUEC (CSF Aβ40)” value (Aβ40 [1]; 10 μmol/kg acute) was 37%. For the same molecule, the “Average Aβ40 CSF ± SD” value (Aβ40 [1]; 10 μmol/kg acute p.o., 4 h) was 0.07527 ± 0.03356 pmol/mL, the “Average Aβ40 CSF ± SD” value (Aβ40 [1]; 10 μmol/kg acute p.o., 24 h) was 0.1565 ± 0.08348 pmol/mL and the “% reduction vs vehicle (CSF Aβ40)” value (Aβ40 [1]; 10 μmol/kg acute, 4 h) was 59%. For the same molecule, the “% reduction vs vehicle (CSF Aβ40)” value (Aβ40 [1]; 10 μmol/kg acute, 24 h) was 14%, the “Mini AUEC (CSF Aβ40)” value (Aβ40 [1]; 30 μmol/kg acute) was 77% and the “Average Aβ40 CSF ± SD” value (Aβ40 [1]; 30 μmol/kg acute p.o., 4 h) was 0.02533 ± 0.01093 pmol/mL. For the same molecule, the “Average Aβ40 CSF ± SD” value (Aβ40 [1]; 30 μmol/kg acute p.o., 24 h) was 0.06083 ± 0.03445 pmol/mL, the “% reduction vs vehicle (CSF Aβ40)” value (Aβ40 [1]; 30 μmol/kg acute, 4 h) was 86% and the “% reduction vs vehicle (CSF Aβ40)” value (Aβ40 [1]; 30 μmol/kg acute, 24 h) was 67%. The safety and tolerability ([2]; 300 mg QD over two weeks (highest tested)) was “safe and tolerated”, the safety and tolerability ([2]; 750 mg single dose (highest tested)) was “safe and tolerated” and the “Distal IBA1+ area” value (IBA1 positive microglia; APP23, 0.03 g/kg food) was 2.74 ± 0.42. For the same molecule, the “Non-plaque-associated IBA1+ area*” value (IBA1 positive microglia; APP23, 0.03 g/kg food) was 3.98 ± 0.54, the “Plaque-associated IBA1+ area” value (IBA1 positive microglia; APP23, 0.03 g/kg food) was 1.79 ± 0.51 and the “Proximal IBA1+ area” value (IBA1 positive microglia; APP23, 0.03 g/kg food) was 1.23 ± 0.22. The “Total IBA1+ area” value (IBA1 positive microglia; APP23, 0.03 g/kg food) was 5.76 ± 0.83, the “Distal IBA1+ area, change vs vehicle” value (IBA1 positive microglia; APP23, 0.03 g/kg vs vehicle) was −28.9% and the “Non-plaque-associated IBA1+ area*, change vs vehicle” value (IBA1 positive microglia; APP23, 0.03 g/kg vs vehicle) was −39.2%. For the same molecule, the “Plaque-associated IBA1+ area, change vs vehicle” value (IBA1 positive microglia; APP23, 0.03 g/kg vs vehicle) was −40.5%, the “Proximal IBA1+ area, change vs vehicle” value (IBA1 positive microglia; APP23, 0.03 g/kg vs vehicle) was −47.4% and the “Total IBA1+ area, change vs vehicle” value (IBA1 positive microglia; APP23, 0.03 g/kg vs vehicle) was −37.4%. The “Distal IBA1+ area” value (IBA1 positive microglia; APP23, 0.3 g/kg food) was 5.05 ± 0.98, the “Non-plaque-associated IBA1+ area*” value (IBA1 positive microglia; APP23, 0.3 g/kg food) was 5.70 ± 1.00 and the “Plaque-associated IBA1+ area” value (IBA1 positive microglia; APP23, 0.3 g/kg food) was 0.88 ± 0.19. The “Proximal IBA1+ area” value (IBA1 positive microglia; APP23, 0.3 g/kg food) was 0.65 ± 0.05, the “Total IBA1+ area” value (IBA1 positive microglia; APP23, 0.3 g/kg food) was 6.31 ± 0.92 and the “Distal IBA1+ area, change vs vehicle” value (IBA1 positive microglia; APP23, 0.3 g/kg vs vehicle) was “+30.7%”. For the same molecule, the “Non-plaque-associated IBA1+ area*, change vs vehicle” value (IBA1 positive microglia; APP23, 0.3 g/kg vs vehicle) was −8.2%, the “Plaque-associated IBA1+ area, change vs vehicle” value (IBA1 positive microglia; APP23, 0.3 g/kg vs vehicle) was −70.6% and the “Proximal IBA1+ area, change vs vehicle” value (IBA1 positive microglia; APP23, 0.3 g/kg vs vehicle) was −72.2%. The “Total IBA1+ area, change vs vehicle” value (IBA1 positive microglia; APP23, 0.3 g/kg vs vehicle) was −28.5%, the “Aβ40 change vs vehicle (Triton TX-100 soluble, brain)” value (Aβ40 [3]; 0.03 g/kg vs vehicle) was −4.6% and the “Aβ40 change vs vehicle (Triton TX-100 soluble, brain)” value (Aβ40 [3]; 0.3 g/kg vs vehicle) was −43.7%. For the same molecule, the “treatment effects on soluble Aβ species (brain tissue and CSF Aβ40)” value (Aβ40 [3]; high dose) was −43.7 to −77% and the “treatment effects on soluble Aβ species (brain tissue and CSF Aβ40)” value (Aβ40 [3]; low dose) was −4.6 to −20%.
